Test results as given in patent US8012943B2, “Antibacterial agents” (Optimer Pharmaceuticals, Inc., priority 2003, dated 2011).
In brackets after ≈: the same amount, converted by molar mass. Like-named read-outs stand apart in the source and are kept apart here.

Key:
Assay in all cases: MIC, NCCLS broth microdilution
E. Coli ATCC 25922 = assay type: cell-based; settings: Escherichia coli, ATCC25922, Table 1
Protocol: (§1) Antibacterial activity of the novel Formula 1 and Formula 2 compounds and their pharmaceutically acceptable addition salts with organic and inorganic acids was determined against a series of microorganisms from the American Type Culture Collection (ATCC) and clinical Streptococcus sp isolates. The ATCC strains included: Staphylococcus aureus, Enterococcus faecium, Klebsiella pneumoniae, Escherichia coli, Salmonella typhimurium, Streptococcus pneumoniae, Streptococcus pyogenes, and Haemophilus influenzae. The clinical strains included macrolide resistant Streptococcus sp. with either Erm or MefA resistance mechanisms. The clinical isolates were identified using the API biochemical identification system (BioMerieux).
(§2) Antimicrobial susceptibility testing was performed according to recommendations by the National Committee for Clinical Laboratory Standards (NCCLS M100-S12, M7-A5). Briefly, two fold dilutions of compounds were made in microtiter plates. Each well of the microtiter plate was inoculated with test microorganisms at a final density 5×10^5 colony forming units (cfu)/mL. The microtiter plates were incubated at 35° C. under aerobic conditions, except for H. influenzae and S. pyogenes which were incubated at 5% CO2. The minimal inhibitory concentration (MIC) was defined as the lowest concentration of compound that inhibited growth. The results of represented examples of this invention on standard test microorganisms and clinical isolates in comparison with azithromycin and telithromycin are shown in Table 1 and Table 2.

E. faecium ATCC 19434 = assay type: cell-based; settings: Enterococcus faecium, ATCC19434, Table 1
Protocol: as §1, §2

K. Pneumonia 13883 = assay type: cell-based; settings: Klebsiella pneumoniae, Table 1
Protocol: as §1, §2

[1] = test system: S. aureus ATCC 29213 (MSSA) MLS-S; assay type: cell-based; settings: Staphylococcus aureus, Table 1
Protocol: as §1, §2

S. aureus MRSA 33591 = assay type: cell-based; settings: Staphylococcus aureus, Table 1
Protocol: as §1, §2

S. pyogenes ATCC 19615 = assay type: cell-based; settings: Streptococcus pyogenes, ATCC19615, 5% CO2, Table 1
Protocol: as §1, §2

[2] = test system: S. Typhimurium ATCC 14028; assay type: cell-based; settings: Salmonella enterica, Table 1
Protocol: as §1
as §2, with “growth.” for “growth. The results of represented examples of this invention on standard test microorganisms and clinical isolates in comparison with azithromycin and telithromycin are shown in Table 1 and Table 2.”

S. pneumoniae 163(MefA) = assay type: cell-based, Streptococcus pneumoniae
Protocol: as §1, §2

S. pneumoniae 303(ErmB) = assay type: cell-based, Streptococcus pneumoniae
Protocol: as §1, §2

S. pneumoniae ATCC 49619 = assay type: cell-based, Streptococcus pneumoniae
Protocol: as §1, §2

H. influenzae ATCC 49247 = assay type: cell-based, Haemophilus influenzae; settings: 5% CO2
Protocol: as §1, §2

S. pneumoniae 5032 = assay type: cell-based; settings: Streptococcus pneumoniae, Table 2
Protocol: as §1, §2

S. pyogenes 1721 = assay type: cell-based; settings: Streptococcus pyogenes, Table 2
Protocol: as §1, §2

S. pyogenes 1850 = assay type: cell-based; settings: Streptococcus pyogenes, Table 2
Protocol: as §1, §2

S. pyogenes 3029 = assay type: cell-based; settings: Streptococcus pyogenes, Table 2
Protocol: as §1, §2

S. pyogenes 3262 = assay type: cell-based; settings: Streptococcus pyogenes, Table 2
Protocol: as §1, §2

[3] = test system: S. pneumoniae 3773 (Erm B); assay type: cell-based, Streptococcus pneumoniae
Protocol: as §1, §2

[4] = Streptococcus pneumoniae, S. pneumoniae 163(MefA), Table 1, read-out: MIC
[5] = Streptococcus pneumoniae, S. pneumoniae 303(ErmB), Table 1, read-out: MIC
[6] = Streptococcus pneumoniae, ATCC49619, Table 1, read-out: MIC
[7] = Haemophilus influenzae, ATCC49247, H. influenzae ATCC 49247, Table 1, read-out: MIC
[8] = Streptococcus pneumoniae, S. pneumoniae 163 (Mef A), Table 2, read-out: MIC
[9] = Streptococcus pneumoniae, S. pneumoniae ErmB 303, Table 2, read-out: MIC
[10] = Streptococcus pneumoniae, Table 2, read-out: MIC
[11] = Streptococcus pneumoniae, ATCC49619, Table 2, read-out: MIC
[12] = Haemophilus influenzae, ATCC49247, H. influenzae ATCC 49247, Table 2, read-out: MIC

SMILES | MIC (E. Coli ATCC 25922) [µg/mL] | MIC (E. faecium ATCC 19434) [µg/mL] | MIC (K. Pneumonia 13883) [µg/mL] | MIC [1] [µg/mL] | MIC (S. aureus MRSA 33591) [µg/mL] | MIC (S. pyogenes ATCC 19615) [µg/mL] | MIC [2] [µg/mL] | MIC (S. pneumoniae 163(MefA); [4]) [µg/mL] | MIC (S. pneumoniae 303(ErmB); [5]) [µg/mL] | MIC (S. pneumoniae ATCC 49619; [6]) [µg/mL] | MIC (H. influenzae ATCC 49247; [7]) [µg/mL] | MIC (S. pneumoniae 5032) [µg/mL] | MIC (S. pyogenes 1721) [µg/mL] | MIC (S. pyogenes 1850) [µg/mL] | MIC (S. pyogenes 3029) [µg/mL] | MIC (S. pyogenes 3262) [µg/mL] | MIC (S. pneumoniae 163(MefA); [8]) [µg/mL] | MIC (S. pneumoniae 303(ErmB); [9]) [µg/mL] | MIC [3, 10] [µg/mL] | MIC (H. influenzae ATCC 49247; [12]) [µg/mL] | further results
CC[C@H]1OC(=O)[C@H](C)[C@@H](O[C@H]2C[C@@](C)(OC)[C@@H](O)[C@H](C)O2)[C@H](C)[C@@H](O[C@@H]2O[C@H](C)C[C@H](N(C)C)[C@H]2O)[C@](C)(O)C[C@@H](C)CN(C)[C@H](C)[C@@H](O)[C@]1(C)O [Azithromycin, reference compound] | 8 (≈ 10.7 µM) | 4 (≈ 5.34 µM) | 8 (≈ 10.7 µM) | 1 (≈ 1.34 µM) | > 64 | 1 (≈ 1.34 µM) | 4 (≈ 5.34 µM) | ≤ 0.125 | 0.5 (≈ 0.668 µM) | ≤ 0.125 | 2 (≈ 2.67 µM) |  |  |  |  |  |  |  |  |  | 
CC[C@H]1OC(=O)[C@H](C)C(=O)[C@H](C)[C@@H](OC(=O)C2CN(C(=O)OC(C)(C)C)C(C)(C)O2)[C@@](C)(OC)C[C@@H](C)C(=O)[C@H](C)[C@H]2N(CCCCn3cnc(-c4cccnc4)c3)C(=O)O[C@]12C (stereo partly drawn) [OP-1086] | > 64 | 4 (≈ 4.53 µM) | > 64 | 4 (≈ 4.53 µM) | > 64 | 32 (≈ 36.3 µM) | > 64 | ≤ 0.125 | 0.25 (≈ 0.283 µM) |  | > 64 |  |  |  |  |  |  |  |  |  | 
CC[C@H]1OC(=O)[C@H](C)C(=O)[C@H](C)[C@@H](O[C@@H]2O[C@H](C)C[C@H](N(C)C)[C@H]2O)[C@](C)(OC)C[C@@H](C)C(=O)[C@H](C)[C@H]2N(CCCCn3cnc(-c4cccnc4)c3)C(=O)O[C@]12C [Telithromycin, reference compound] | 16 (≈ 19.7 µM) | ≤ 0.125 | 16 (≈ 19.7 µM) | ≤ 0.125 | > 64 | ≤ 0.125 | 4 (≈ 4.93 µM) | ≤ 0.125 | ≤ 0.125 | ≤ 0.125 | 2 (≈ 2.46 µM) | 1 (≈ 1.23 µM) | 64 (≈ 78.8 µM) | 8 (≈ 9.85 µM) | 16 (≈ 19.7 µM) | 32 (≈ 39.4 µM) |  |  | 1 (≈ 1.23 µM) | 4 (≈ 4.93 µM) | MIC (S. pneumoniae 163(MefA); S. pneumoniae 163 (Mef A), Table 2): <=0.125 mcg/mL; MIC (S. pneumoniae 303(ErmB); S. pneumoniae ErmB 303, Table 2): <=0.125 mcg/mL; MIC (S. pneumoniae ATCC 49619; Table 2): <=0.125 mcg/mL
CC[C@H]1OC(=O)[C@H](C)C(=O)[C@H](C)[C@@H](OC2OC(C)CC(N(C)C)C2O)[C@@](C)(OC)C[C@@H](C)C(=O)[C@H](C)[C@H]2N(CCCCn3cc(Cn4nnc5ccccc54)nn3)C(=O)O[C@]12C (stereo partly drawn) [OP-1007, 11-N-[4-(4-Benzotriazol-1-ylmethyl-[1,2,3]triazol-1-yl)-butyl]-6-O-methyl-5-O-dasosaminyl-3-oxo-erythronolide A, 11,12-carbamate] | 64 (≈ 73.8 µM) | ≤ 0.125 | 32 (≈ 36.9 µM) | ≤ 0.125 | > 64 | ≤ 0.125 | 8 (≈ 9.23 µM) | ≤ 0.125 | > 64 | ≤ 0.125 | 0.5 (≈ 0.577 µM) |  |  |  |  |  |  |  |  |  | 
CC[C@H]1OC(=O)[C@H](C)C(=O)[C@H](C)[C@@H](OC2OC(C)C(O)C(N(C)C)C2O)[C@@](C)(OC)C[C@@H](C)C(=O)[C@H](C)[C@H]2N(CCCCn3cc(Cn4nnc5ccccc54)nn3)C(=O)O[C@]12C (stereo partly drawn) [OP-1071, 11-N-[4-(4-Benzotriazol-1-ylmethyl-[1,2,3]triazol-1-yl)-butyl]-6-O-methyl-5-mycaminosyl-3-oxo-erythronolide A, 11,12-carbamate] | > 64 | ≤ 0.125 | > 64 | 0.25 (≈ 0.283 µM) | > 64 | ≤ 0.125 | > 64 | 0.5 (≈ 0.566 µM) | > 64 | ≤ 0.125 | 2 (≈ 2.26 µM) |  |  |  |  |  |  |  |  |  | 

Continued, in another order:

MIC (E. Coli ATCC 25922) [µg/mL] | MIC (E. faecium ATCC 19434) [µg/mL] | MIC (K. Pneumonia 13883) [µg/mL] | MIC [1] [µg/mL] | MIC (S. aureus MRSA 33591) [µg/mL] | MIC (S. pyogenes ATCC 19615) [µg/mL] | MIC [2] [µg/mL] | MIC (S. pneumoniae 163(MefA); [4]) [µg/mL] | MIC (S. pneumoniae 303(ErmB); [5]) [µg/mL] | MIC (S. pneumoniae ATCC 49619; [6]) [µg/mL] | MIC (H. influenzae ATCC 49247; [7]) [µg/mL] | MIC (S. pneumoniae 5032) [µg/mL] | MIC (S. pyogenes 1721) [µg/mL] | MIC (S. pyogenes 1850) [µg/mL] | MIC (S. pyogenes 3029) [µg/mL] | MIC (S. pyogenes 3262) [µg/mL] | MIC (S. pneumoniae 163(MefA); [8]) [µg/mL] | MIC (S. pneumoniae 303(ErmB); [9]) [µg/mL] | MIC [3, 10] [µg/mL] | MIC (H. influenzae ATCC 49247; [12]) [µg/mL] | SMILES | further results
 |  |  |  |  |  |  |  |  |  |  | 1 (≈ 1.11 µM) | 4 (≈ 4.42 µM) | 0.25 (≈ 0.277 µM) | 1 (≈ 1.11 µM) | 4 (≈ 4.42 µM) | ≤ 0.125 | ≤ 0.125 | 0.5 (≈ 0.553 µM) | 1 (≈ 1.11 µM) | CC[C@H]1OC(=O)[C@@](C)(F)C(=O)[C@H](C)[C@@H](OC2OC(COC(C)=O)CC(N(C)C)C2O)[C@@](C)(OC)C[C@@H](C)C(=O)[C@H](C)[C@H]2N(CCCCn3cc(-c4cccc(N)n4)nn3)C(=O)O[C@]12C (stereo partly drawn) [OP-1356, 11-N-{4-[4-(6-Amino-pyridin-2-yl)-[1,2,3]triazol-1-yl]-butyl}-5-(3-dimethylamine-4-deoxy-6-O-acetyl-glucopyranosyl)-3-oxo-2-fluoro-erythronolide A,-11,12-cyclic carbamate] | MIC (S. pneumoniae ATCC 49619; [11]): ≤ 0.125 µg/mL
 |  |  |  |  |  |  |  |  |  |  | 1 (≈ 1.18 µM) | 2 (≈ 2.36 µM) | 0.25 (≈ 0.296 µM) | 1 (≈ 1.18 µM) | 1 (≈ 1.18 µM) | ≤ 0.125 | ≤ 0.125 | 1 (≈ 1.18 µM) | 4 (≈ 4.73 µM) | CC[C@H]1OC(=O)[C@@](C)(F)C(=O)[C@H](C)[C@@H](OC2OC(C)CC(N(C)C)C2O)[C@@](C)(OC)C[C@@H](C)C(=O)[C@H](C)[C@H]2N(CCCCn3cc(-c4cccc(N)n4)nn3)C(=O)O[C@]12C (stereo partly drawn) [OP-1357, 11-N-{4-[4-(6-Amino-pyridin-2-yl)-[1,2,3]triazol-1-yl]-butyl}-5-desosaminyl-3-oxo-2-fluoro-erythronolide A,-11,12-cyclic carbamate] | MIC (S. pneumoniae ATCC 49619; [11]): ≤ 0.125 µg/mL
 |  |  |  |  |  |  |  |  |  |  | 0.5 (≈ 0.592 µM) | 0.5 (≈ 0.592 µM) | ≤ 0.125 | ≤ 0.125 | 0.5 (≈ 0.592 µM) | ≤ 0.125 | ≤ 0.125 | 0.5 (≈ 0.592 µM) | 2 (≈ 2.37 µM) | CC[C@H]1OC(=O)[C@@](C)(F)C(=O)[C@H](C)[C@@H](O[C@@H]2O[C@H](C)C[C@H](N(C)C)[C@H]2O)[C@](C)(OC)C[C@@H](C)C(=O)[C@H](C)[C@H]2N(CCCCn3cc(-c4cccc(N)c4)nn3)C(=O)O[C@]12C [OP-1068, 11-N-[4-[4-(3-aminophenyl)-[1,2,3]triazol-1-yl]-butyl]-5-desosaminyl-3-oxo-2-fluoro-erythronolide A, 11,12-cyclic carbamate] | MIC ([3]; Table 2): 1 µg/mL (≈ 1.18 µM); MIC (S. pneumoniae ATCC 49619; [11]): ≤ 0.125 µg/mL; MIC (H. influenzae ATCC 49247; H. influenzae ATCC 49247, Table 2): 4 µg/mL (≈ 4.73 µM)
